Experiment [1] relates to Staphylococcus aureus (ATCC25923). Nature of the experiment: MIC, broth microdilution (CLSI), Staphylococcus aureus ATCC25923. To be noted: Staphylococcus aureus, ATCC25923, read-out: S. aureus ATCC 25923 MIC.
Experiment [2] relates to E. coli RNase P RNA, M1 RNA. Nature of the experiment: Inhibition of bacterial RNase P activity, IC50 determination (cleavage of pATSerUG by M1 RNA). The format is biochemical. To be noted: NI: No inhibition.
For experiment [3], the system named is Escherichia coli (ATCC25922). Nature of the experiment: MIC, broth microdilution (CLSI), Escherichia coli. The settings on record: Escherichia coli, ATCC25922, read-out: E. coli ATCC 25922 MIC, Table XIII.

Results on 18 molecules are retold here after US20210246115A1 (Bioimics AB, priority 2017, published 2021).

Counter-ions that a name gives are not always drawn.

Regarding `O=C(CC(c1cn(CC2CCCCC2)c2ccccc12)C1CCNCC1)NCCC1CCNCC1` (stereo not drawn) [Compound 145, 3-(1-(cyclohexylmethyl)-1H-indol-3-yl)-3-(piperidin-4-yl)-N-(2-(piperidin-4-yl)ethyl)propanamide hydrochloride salt], the figures for the MIC in experiment [1] and in experiment [3] were 512 µg/mL and > 512 µg/mL, respectively. Further, the IC50 in experiment [2] amounted to 1480 µM.

In the case of `Cl.NC1CCC(NC(=O)Cc2cn(CC3CCCCC3)c3ccc(-c4ccccc4OC(F)(F)F)cc23)CC1` [Compound 234, N-((1S,4S)-4-aminocyclohexyl)-2-(1-(cyclohexylmethyl)-5-(2-(trifluoromethoxy)phenyl)-1H-indol-3-yl)acetamide hydrochloride salt], the minimum inhibitory concentration (MIC) in experiment [1] was found to be 9 µg/mL; in experiment [3], 289 µg/mL. Further, the concentration for half-maximal inhibition (IC50) in experiment [2] turned out to be 7 µM.

Regarding `Cc1ccccc1-c1ccc2c(c1)c(CC(=O)NC1CCC(N)CC1)cn2CC1CCCCC1.Cl` [Compound 235, N-((1S,4S)-4-aminocyclohexyl)-2-(1-(cyclohexylmethyl)-5-(o-tolyl)-1H-indol-3-yl)acetamide hydrochloride salt], the minimum inhibitory concentration (MIC) in experiment [1] was determined as 8 µg/mL; in experiment [3], 126 µg/mL. For the same molecule, the midpoint of inhibition in experiment [2], the IC50, lay at 12 µM.

For `Cl.N[C@H]1CC[C@H](NC(=O)CC(c2cccc(Cl)c2)c2cn(CC3CCCCC3)c3ccccc23)CC1` (stereo partly drawn) [Compound 135, N-((1r,4r)-4-aminocyclohexyl)-3-(3-chlorophenyl)-3-(1-(cyclohexylmethyl)-1H-indol-3-yl)propanamide hydrochloride salt], the MIC in experiment [1] is 4 µg/mL; in experiment [3], 256 µg/mL. The half-inhibitory concentration (IC50) in experiment [2] turned out to be 8 µM.

As to `COc1ccccc1-c1ccc2c(c1)c(C(CCN[C@H]1CC[C@H](N)CC1)c1cccc(C)c1)cn2CC1CCCCC1` (stereo partly drawn) [Compound 229, (1R,4R)-N1-(3-(1-(cyclohexylmethyl)-5-(2-methoxyphenyl)-1H-indol-3-yl)-3-(m-tolyl)propyl)cyclohexane-1,4-diamine hydrochloride salt], the minimum inhibitory concentration (MIC) was found to be 3 µg/mL in experiment [1] and 20 µg/mL in experiment [3]. The IC50 in experiment [2] came to 5.4 µM.

Turning to `Cc1cccc(C(CC(=O)NC2CCC(N)CC2)c2cn(CC3CCCCC3)c3ccc(-c4ccncc4)cc23)c1` (stereo not drawn) [Compound 188, N-(4-aminocyclohexyl)-3-(1-(cyclohexylmethyl)-5-(pyridin-4-yl)-1H-indol-3-yl)-3-(m-tolyl) propanamide hydrochloride salt], the minimum inhibitory concentration (MIC) in experiment [1] is 5 µg/mL; in experiment [3], > 512 µg/mL. The IC50 in experiment [2] came out at 5.8 µM.

For `Cc1cccc(C(CC(=O)N(C)C2CCNCC2)c2cn(CC3CCCCC3)c3ccc(Br)cc23)c1.Cl` (stereo not drawn) [Compound 278, 3-(5-bromo-1-(cyclohexylmethyl)-1H-indol-3-yl)-N-methyl-N-(piperidin-4-yl)-3-(m-tolyl)propanamide hydrochloride salt], the minimal inhibitory concentration (MIC) in experiment [1] was 2 µg/mL; in experiment [3], > 512 µg/mL. This molecule also returned an IC50 in experiment [2] of 15 µM.

Turning to `Cl.O=C(CCc1cn(CC2CCCCC2)c2ccccc12)NC1CCNCC1` [Compound 115, 3-(1-(cyclohexylmethyl)-1H-indol-3-yl)-N-(piperidin-4-yl)propanamide hydrochloride salt], the minimum inhibitory concentration (MIC) in experiment [1] and in experiment [3] was 128 µg/mL throughout. The molecule also gave an IC50 in experiment [2] of 145 µM.

As to `COc1cccc(C(CC(=O)NCCC2CCNCC2)c2cn(Cc3ccccc3)c3ccccc23)c1.Cl` (stereo not drawn) [Compound 68, 3-(1-benzyl-1H-indol-3-yl)-3-(3-methoxyphenyl)-N-(2-(piperidin-4-yl)ethyl)propanamide hydrochloride salt], the minimal inhibitory concentration (MIC) was 68 µg/mL in experiment [1] and > 512 µg/mL in experiment [3]. In experiment [2], this molecule gave a concentration for half-maximal inhibition (IC50) of 201 µM.

For `NC1CCC(NC(=O)Cc2cn(CC3CCCCC3)c3ccc(-c4ccncc4)cc23)CC1` [Compound 255, N-((1S,4S)-4-aminocyclohexyl)-2-(1-(cyclohexylmethyl)-5-(pyridin-4-yl)-1H-indol-3-yl)acetamide hydrochloride salt], the minimal inhibitory concentration (MIC) came to 8 µg/mL in experiment [1] and 66 µg/mL in experiment [3]. In addition, the half-inhibitory concentration (IC50) in experiment [2] worked out at 33 µM.

Take `COc1cccc(C(CC(=O)NC2CCC(N)CC2)c2cn(CC3CCCCC3)c3ccccc23)c1.Cl` [Compound 160, N-((1S,4S)-4-aminocyclohexyl)-3-(1-(cyclohexylmethyl)-1H-indol-3-yl)-3-(3-methoxyphenyl) propanamide hydrochloride salt]: the minimal inhibitory concentration (MIC) is 17 µg/mL in experiment [1] and 67 µg/mL in experiment [3]. The same molecule gave a half-maximal inhibitory concentration (IC50) in experiment [2] of 12 µM.

As for `Cl.c1ccc2c(CCNCC3CCCC3)c[nH]c2c1` [Compound 20, N-(cyclopentylmethyl)-2-(1H-indol-3-yl)ethan-1-amine hydrochloride salt], the MIC in experiment [1] and in experiment [3] was > 512 µg/mL throughout. In experiment [2], this molecule registered a half-maximal inhibitory concentration (IC50) of 4140 µM.

Turning to `Cc1cccc(C(CC(=O)N[C@H]2CC[C@H](N)CC2)c2cn(Cc3ccccc3)c3ccccc23)c1.Cl` (stereo partly drawn) [Compound 64, N-((1R,4R)-4-aminocyclohexyl)-3-(1-benzyl-1H-indol-3-yl)-3-(m-tolyl)propanamide salt], the MIC is 64 µg/mL in experiment [1] and > 512 µg/mL in experiment [3]. Further, half-maximal inhibition in experiment [2] (IC50) required 58 µM.

`NC1CCC(NC(=O)CC(c2cnc3ccccc3c2)c2cn(CC3CCCCC3)c3ccccc23)CC1` [Compound 142, N-((1S,4S)-4-aminocyclohexyl)-3-(1-(cyclohexylmethyl)-1H-indol-3-yl)-3-(quinolin-3-yl)propanamide hydrochloride salt]: the MIC in experiment [1] was determined as 8 µg/mL; in experiment [3], 32 µg/mL. In addition, the IC50 in experiment [2] was 44 µM.

Regarding `NC1CCC(NCCC(c2cc(Cl)cc(Cl)c2)c2cn(CC3CCCCC3)c3ccccc23)CC1` [Compound 171, (1S,4S)-N1-(3-(1-(cyclohexylmethyl)-1H-indol-3-yl)-3-(3,5-dichlorophenyl)propyl) cyclohexane-1,4-diamine hydrochloride salt], the minimal inhibitory concentration (MIC) came out at 2 µg/mL in experiment [1] and 5 µg/mL in experiment [3]. Besides, 12 µM corresponded to half-maximal inhibition in experiment [2] (IC50).

`Cc1cccc(C(CC(=O)N[C@H]2CCCC[C@@H]2N)c2cn(CC3CCCCC3)c3ccccc23)c1.Cl` (stereo partly drawn) [Compound 189, N-((1S,2S)-2-aminocyclohexyl)-3-(1-(cyclohexylmethyl)-1H-indol-3-yl)-3-(m-tolyl)propanamide hydrochloride salt]: the values for the MIC in experiment [1] and in experiment [3] were 16 µg/mL and > 512 µg/mL, respectively. In experiment [2], the concentration for half-maximal inhibition (IC50) was 16 µM.

Turning to `Cc1cccc(-c2ccc3c(c2)c(CCCN[C@H]2CC[C@H](N)CC2)cn3CC2CCCCC2)c1` [Compound 207, (1R,4R)-N1-(3-(1-(cyclohexylmethyl)-5-(m-tolyl)-1H-indol-3-yl)propyl)cyclohexane-1,4-diamine hydrochloride salt], the MIC in experiment [1] and in experiment [3] was 4 µg/mL each time. This molecule also had a half-maximal inhibitory concentration (IC50) in experiment [2] of 17 µM.

In the case of `Cl.N[C@H]1CC[C@H](NC(=O)CCc2cn(CC3CCCCC3)c3ccccc23)CC1` [Compound 116, N-((1r,4r)-4-aminocyclohexyl)-3-(1-(cyclohexylmethyl)-1H-indol-3-yl)propanamide hydrochloride salt], the MIC in experiment [1] and in experiment [3] was 128 µg/mL each time. Also, the IC50 in experiment [2] was found to be 158 µM.
